Measured values: ChEMBL document CHEMBL2016519, “A comparative study of backbone versus side chain peptide cyclization: application for HIV-1 integrase inhibitors” (Bioorg Med Chem, 2012)
pKd: −log10 of the molar value. Activity calls are given as the source filed them. The calls are words filed in the database; no cut-off is given here. Starred links: 1 amine or outer side, 2 acyl side, 3 side chain; linkers in the order of their positions; H or OH if unused. Positions of bridges follow the written chain, without caps; N, C: chain ends. Non-standard residues stand in square brackets, D forms with d. Residues, ends and D or L forms follow the SMILES beside them. ξ: configuration not given here. X1 = NC(CC(=O)[*:1])C(=O)[*:2]; ξOrn = NCCCC(N)C(=O)O; Nlys = NCCCCNCC(=O)O; ξK = NCCCCC(N)C(=O)O

How the values were obtained:
[1] = tested on: Human immunodeficiency virus 1; test: Antiviral activity against wild type HIV1 infected in human H9 cells assessed as p24 protein expression pre-incubated with cells for 2 hrs at 12.5 uM measured after 6 days post infection using multiple dose study wherein additional dose was added every 2 days; format: functional; conditions: for inhibition at 12.5 µM: Human immunodeficiency virus 1, H9
[2] = tested on: Human immunodeficiency virus 1; test: Antiviral activity against wild type HIV1 infected in human H9 cells assessed as p24 protein expression pre-incubated with cells for 2 hrs at 12.5 uM measured after 8 days post infection using multiple dose study wherein additional dose was added every 2 days; format: functional; conditions: for inhibition at 12.5 µM: Human immunodeficiency virus 1, H9
[3] = tested on: Human immunodeficiency virus 1; test: Antiviral activity against wild type HIV1 infected in human H9 cells assessed as p24 protein expression pre-incubated with cells for 2 hrs at 12.5 uM measured after 6 days post infection using single dose study; format: functional; conditions: for inhibition at 12.5 µM: Human immunodeficiency virus 1, H9
[4] = tested on: Human immunodeficiency virus 1; test: Inhibition of His-tagged HIV-1 integrase C56S, W131D, F185K and […] mutant at 20 uM by fluorescence anisotropy
[5] = tested on: Human immunodeficiency virus 1; test: Antiviral activity against wild type HIV1 infected in human H9 cells assessed as p24 protein expression pre-incubated with cells for 2 hrs at 12.5 uM measured after 8 days post infection using single dose study; format: functional; conditions: for inhibition at 12.5 µM: Human immunodeficiency virus 1, H9
[6] = Stability in trypsin and chymotrypsin extract assessed as duration showing initiation of compound degradation at 37 degC by mass spectrometry; format: ADME
[7] = Binding affinity to His-tagged HIV-1 integrase C56S, W131D, F185K and […] mutant by fluorescence anisotropy; design: species or system Human immunodeficiency virus 1

CC[C@H](C)[C@@H]1NC(=O)[C@H](CCCCN)NC(=O)[C@H](CC(C)C)NC(=O)[C@H](CO)NC(=O)[C@H](CC(N)=O)NC(=O)[C@H](Cc2c[nH]c3ccccc23)NC(=O)CC(N)C(=O)NCCCCN(CC(N)=O)C(=O)[C@H](C(C)C)NC(=O)[C@H](CC(=O)O)NC(=O)[C@H](CC(C)C)NC(=O)[C@H](CC(N)=O)NC(=O)[C@H](CC(=O)O)NC1=O (stereo partly drawn) (WNSLKIDNLDV[Nlys]-NH2; linker N-12 via X1)
inhibition [1]: Active | inhibition [2]: Active | inhibition at 12.5 µM [3]: 90% | inhibition [4]: 90% | inhibition at 12.5 µM [5]: 90% | Stability [6]: 150 min | pKd [7]: 5.30

CC[C@H](C)[C@@H]1NC(=O)[C@H](CCCCN)NC(=O)[C@H](CC(C)C)NC(=O)[C@H](CO)NC(=O)[C@H](CC(N)=O)NC(=O)[C@H](Cc2c[nH]c3ccccc23)NC(=O)CC(N)C(=O)NCCCCC(C(N)=O)NC(=O)[C@H](C(C)C)NC(=O)[C@H](CC(=O)O)NC(=O)[C@H](CC(C)C)NC(=O)[C@H](CC(N)=O)NC(=O)[C@H](CC(=O)O)NC1=O (stereo partly drawn) (WNSLKIDNLDV[ξK]-NH2; linker N-12 via X1)
inhibition at 12.5 µM [1]: 85% | inhibition at 12.5 µM [2]: 85% | inhibition at 12.5 µM [3]: 80% | inhibition [4]: 55% | inhibition at 12.5 µM [5]: 65% | Stability [6]: 150 min | pKd [7]: 5.60

CC[C@H](C)[C@@H]1NC(=O)[C@H](CCCCN)NC(=O)[C@H](CC(C)C)NC(=O)[C@H](CO)NC(=O)[C@H](CC(N)=O)NC(=O)[C@H](Cc2c[nH]c3ccccc23)NC(=O)CC(N)C(=O)NCCCC(C(N)=O)NC(=O)[C@H](C(C)C)NC(=O)[C@H](CC(=O)O)NC(=O)[C@H](CC(C)C)NC(=O)[C@H](CC(N)=O)NC(=O)[C@H](CC(=O)O)NC1=O (stereo partly drawn) (WNSLKIDNLDV[ξOrn]-NH2; linker N-12 via X1)
inhibition at 12.5 µM [1]: 40% | inhibition at 12.5 µM [2]: 40% | inhibition at 12.5 µM [3]: 25% | inhibition [4]: 50% | inhibition at 12.5 µM [5]: 25% | Stability [6]: 150 min | pKd [7]: 5.70

H-WNSLKIDNLDV-OH
inhibition [1]: Active | inhibition [2]: Active | inhibition [3]: inactive | inhibition [4]: 83% | inhibition [5]: inactive | Stability [6]: 30 min | pKd [7]: 5.29
